Measurements taken from paper PMC10747112, “Triphenylphosphine Derivatives of Allylbenzenes Express Antitumor and Adjuvant Activity When Solubilized with Cyclodextrin-Based Formulations” (Pharmaceuticals, 2023).

Assays:
erythrocytes = test: Hemolytic activity; assay type: cell-based; conditions: 0.1 mg/mL
Source text: Hemolytic activity and thrombogenicity are the primary parameters for evaluating the safety of medical formulations. The phenotypic sea urchin embryo assay developed by colleagues is a visual way to study the toxicity of formulations in vivo. The sea urchin and human genomes contain more than 7000 common genes, including orthologs associated with a number of human diseases. Therefore, sea urchins can be considered as a reliable and versatile model organism for studying the safety of new and existing cytotoxic formulations in vivo. Table 5 presents data on the % of erythrocyte hemolysis, the degree of whole blood thrombosis of apiol-PPh3 and analogues, and data of phenotypic sea urchin embryo assay. Thus, the non-toxicity of PPh3 derivatives of allylbenzenes for normal non-cancer cells, as well as the selectivity of action against cancer cells, is shown. The selectivity of cytotoxic action against cancer cells in comparison with normal cells can be explained by the fact that the PPh3- cation provides selective accumulation and reduction in the mitochondrial membrane potential of the transformed cancer cells. Cyclodextrin (M-β-CD) and heparin are non-toxic (and approved by the FDA for intravenous application).
The hemolytic activity and thrombogenicity of apiol-PPh3 and analogues were studied using an earlier published technique.

HEK293T cells = test: FTIR spectroscopy of HEK293T cells during incubation with drug (penetration/adsorption); assay type: cell-based, human; conditions: 60 min incubation (apiol-PPh3 in M-β-CD) or pre-incubation (doxorubicin controls); 37 °C
Source text: The main cell structural units that contribute to the absorption of IR diapason can be assigned as follows (Figure 5): lipids of the cell membrane (2800–3000 cm^−1), proteins, especially transmembrane (1500–1700 cm^−1), phosphate groups of DNA (1240 cm^−1) and carbohydrates, including lipopolysaccharides (900–1100 cm^−1). Previously, we developed a technique for tracking the penetration and adsorption of the drug into cells using FTIR spectroscopy: dramatic changes in the intensity of the peaks of amide 1 and amide 2 indicate effective penetration of the drug into cells and vice versa.
Here, we present the real-time data of FTIR spectroscopy during the incubation of a suspension of HEK293T cells with apiol-PPh3 in M-β-CD (Figure 5). […] There is only a shift of the peak of amide 1 to the low-frequency region (inserts in Figure 5, the normalized intensity is shown) and amide 2 to the high-frequency region with the simultaneous appearance of the shoulder. This indicates the only adsorption of drug molecules on the cell surface, which is also confirmed by a weak increase in the intensity of the peaks at 2850–3000 cm^−1 corresponding to the valence vibrations of the CH2 groups (lipid bilayer). Thus, PPh3 derivatives show only marginal activity against normal cells.

| Compound | Hemolysis Index (erythrocytes) | changes in FTIR amide I and II peak intensity of HEK293T cells (drug penetration) (HEK293T cells) |
| --- | --- | --- |
| COc1cc(CCC[P+](c2ccccc2)(c2ccccc2)c2ccccc2)c(OC)c(OC)c1OC [Allyltetramethoxybenzene-PPh3] | 0.7 ± 0.1% | – |
| COc1cc(CCC[P+](c2ccccc2)(c2ccccc2)c2ccccc2)c(OC)c2c1OCO2 [Apiol-PPh3] | 0.8 ± 0.2% | practically no changes in the intensity of the peaks of amide I and II |
| COc1c(CCC[P+](c2ccccc2)(c2ccccc2)c2ccccc2)cc2c(c1OC)OCO2 [Dillapiol-PPh3] | 0.9 ± 0.2% | – |
| COc1cc(CCC[P+](c2ccccc2)(c2ccccc2)c2ccccc2)cc2c1OCO2 [Myristicin-PPh3] | 0.5 ± 0.1% | – |
